We go through three compounds from article PMC4457528, “Identification of Novel Small Molecule Inhibitors of Oncogenic RET Kinase” (PLoS ONE, 2015).

Holding throughout (assay): KinomeScan kinase panel, single concentration 10 µM
Common to all, as to type: binding

For assay [1], the target named is T1, KinomeScan kinase panel (Homo sapiens, UniProt P42336, E545A).
T1 construct: purchased DiscoveRx (KinomeScan)
Particulars: PIK3CA(E545A), 10 µM; read-out: score (%).

The target of assay [2] is T2, KinomeScan kinase panel (Homo sapiens, UniProt O76039).
T2 construct: purchased DiscoveRx (KinomeScan)
Particulars: CDKL5, 10 µM; read-out: score (%).

Assay [3] has as its target T3, KinomeScan kinase panel (Homo sapiens, UniProt Q15835).
T3 construct: purchased DiscoveRx (KinomeScan)
Particulars: GRK1, 10 µM; read-out: score (%).

Assay [4] deals with T4, KinomeScan kinase panel (Homo sapiens, UniProt Q56UN5).
T4 construct: purchased DiscoveRx (KinomeScan)
Particulars: kinase YSK4; 10 µM; read-out: score (%).

In assay [5] the target is T5, KinomeScan kinase panel (Homo sapiens, UniProt O43283).
T5 construct: purchased DiscoveRx (KinomeScan)
T5 sequence (O43283 whole entry): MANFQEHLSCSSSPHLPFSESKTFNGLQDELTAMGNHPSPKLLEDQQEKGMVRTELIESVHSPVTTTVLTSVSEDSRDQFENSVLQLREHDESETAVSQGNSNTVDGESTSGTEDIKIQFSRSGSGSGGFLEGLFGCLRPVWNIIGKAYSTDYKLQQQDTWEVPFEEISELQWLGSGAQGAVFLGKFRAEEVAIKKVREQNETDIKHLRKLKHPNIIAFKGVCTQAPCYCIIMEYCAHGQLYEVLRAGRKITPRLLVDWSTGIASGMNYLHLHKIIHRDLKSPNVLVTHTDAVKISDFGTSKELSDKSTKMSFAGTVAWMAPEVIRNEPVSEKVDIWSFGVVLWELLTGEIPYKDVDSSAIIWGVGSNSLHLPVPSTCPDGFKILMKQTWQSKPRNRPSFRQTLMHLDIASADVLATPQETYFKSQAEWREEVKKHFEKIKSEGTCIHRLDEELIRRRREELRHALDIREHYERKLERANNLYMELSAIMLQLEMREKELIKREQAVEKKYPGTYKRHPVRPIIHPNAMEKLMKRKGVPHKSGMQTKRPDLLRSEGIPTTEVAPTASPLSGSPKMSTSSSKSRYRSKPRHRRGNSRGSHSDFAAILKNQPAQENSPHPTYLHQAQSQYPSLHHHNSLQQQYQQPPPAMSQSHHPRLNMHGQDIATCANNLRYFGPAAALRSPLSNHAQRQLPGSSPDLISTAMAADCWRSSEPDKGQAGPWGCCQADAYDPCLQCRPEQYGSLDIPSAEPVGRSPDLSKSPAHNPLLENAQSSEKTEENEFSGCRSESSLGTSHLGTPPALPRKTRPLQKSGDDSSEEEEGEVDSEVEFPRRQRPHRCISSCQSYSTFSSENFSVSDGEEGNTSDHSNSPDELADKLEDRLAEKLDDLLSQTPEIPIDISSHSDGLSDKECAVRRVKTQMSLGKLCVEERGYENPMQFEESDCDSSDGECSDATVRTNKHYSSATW
Particulars: LZK, 10 µM.

Assay [6] has as its target T6, KinomeScan kinase panel (Homo sapiens, UniProt O95747).
T6 construct: purchased DiscoveRx (KinomeScan)
Particulars: OSR1, 10 µM; read-out: score (%).

Assay [7] concerns the target T7, KinomeScan kinase panel (Homo sapiens, UniProt P10721, L576P).
T7 construct: purchased DiscoveRx (KinomeScan)
Particulars: KIT(L576P), 10 µM; read-out: score (%).

Assay [8] concerns the target T8, KinomeScan kinase panel (Homo sapiens, UniProt P32298).
T8 construct: purchased DiscoveRx (KinomeScan)
Particulars: GRK4, 10 µM; read-out: score (%).

The target of assay [9] is T9, KinomeScan kinase panel (Homo sapiens, UniProt Q9Y2U5).
T9 construct: purchased DiscoveRx (KinomeScan)
Particulars: MAP3K2, 10 µM; read-out: score (%).

The target in assay [10] is T10, KinomeScan kinase panel (Homo sapiens, UniProt P42336, E542K).
T10 construct: purchased DiscoveRx (KinomeScan)
Particulars: PIK3CA(E542K), 10 µM; read-out: score (%).

Assay [11] concerns the target T11, KinomeScan kinase panel (Homo sapiens, UniProt Q92630).
T11 construct: purchased DiscoveRx (KinomeScan)
Particulars: DYRK2, 10 µM; read-out: score (%).

The target of assay [12] is T12, KinomeScan kinase panel (Homo sapiens, UniProt P21860).
T12 construct: purchased DiscoveRx (KinomeScan)
Particulars: ERBB3, 10 µM; read-out: score (%).

The target of assay [13] is T13, KinomeScan kinase panel (Homo sapiens, UniProt O75747).
T13 construct: purchased DiscoveRx (KinomeScan)
Particulars: PIK3C2G, 10 µM; read-out: score (%).

Assay [14] deals with T14, KinomeScan kinase panel (Homo sapiens, UniProt Q9H2X6).
T14 construct: purchased DiscoveRx (KinomeScan)
Particulars: HIPK2, 10 µM; read-out: score (%).

For assay [15], the target named is T15, KinomeScan kinase panel (Homo sapiens, UniProt Q6ZN16).
T15 construct: purchased DiscoveRx (KinomeScan)
Particulars: MAP3K15, 10 µM; read-out: score (%).

Assay [16] has as its target T16, KinomeScan kinase panel (Homo sapiens, UniProt Q8IY84).
T16 construct: purchased DiscoveRx (KinomeScan)
Particulars: NIM1, 10 µM; read-out: score (%).

Assay [17] has as its target T17, KinomeScan kinase panel (Homo sapiens, UniProt P08581, M1250T).
T17 construct: purchased DiscoveRx (KinomeScan)
Particulars: MET(M1250T), 10 µM.

Assay [18] concerns the target T18, KinomeScan kinase panel (Homo sapiens, UniProt Q9H422).
T18 construct: purchased DiscoveRx (KinomeScan)
Particulars: HIPK3, 10 µM; read-out: score (%).

The target of assay [19] is T19, KinomeScan kinase panel (Homo sapiens, UniProt P51617).
T19 construct: purchased DiscoveRx (KinomeScan)
Particulars: IRAK1, 10 µM; read-out: score (%).

Assay [20] deals with T20, KinomeScan kinase panel (Homo sapiens, UniProt Q9Y2H9).
T20 construct: purchased DiscoveRx (KinomeScan)
Particulars: MAST1, 10 µM; read-out: score (%).

Assay [21] addresses T21, KinomeScan kinase panel (Homo sapiens, UniProt Q8WTQ7).
T21 construct: purchased DiscoveRx (KinomeScan)
Particulars: GRK7, 10 µM; read-out: score (%).

Assay [22] has as its target T22, KinomeScan kinase panel (Homo sapiens, UniProt Q9UEW8).
T22 construct: purchased DiscoveRx (KinomeScan)
Particulars: kinase STK39; 10 µM; read-out: score (%).

In assay [23] the target is T23, KinomeScan kinase panel (Homo sapiens, UniProt Q13627).
T23 construct: purchased DiscoveRx (KinomeScan)
Particulars: DYRK1A, 10 µM; read-out: score (%).

Assay [24] has as its target T24, KinomeScan kinase panel (Homo sapiens, UniProt Q9UPZ9).
T24 construct: purchased DiscoveRx (KinomeScan)
Particulars: ICK, 10 µM; read-out: score (%).

Assay [25] addresses T25, KinomeScan kinase panel (Homo sapiens, UniProt O15197).
T25 construct: purchased DiscoveRx (KinomeScan)
Particulars: EPHB6, 10 µM; read-out: score (%).

The target in assay [26] is T26, KinomeScan kinase panel (Homo sapiens, UniProt P42336, C420R).
T26 construct: purchased DiscoveRx (KinomeScan)
Particulars: PIK3CA(C420R), 10 µM; read-out: score (%).

Assay [27] addresses T27, KinomeScan kinase panel (Homo sapiens, UniProt Q8IVW4).
T27 construct: purchased DiscoveRx (KinomeScan)
Particulars: CDKL3, 10 µM; read-out: score (%).

The target in assay [28] is T28, KinomeScan kinase panel (Homo sapiens, UniProt P00533, L858R/T790M).
T28 construct: purchased DiscoveRx (KinomeScan)
Particulars: EGFR(L858R.T790M), 10 µM.

The target of assay [29] is T29, KinomeScan kinase panel (Homo sapiens, UniProt Q13464).
T29 construct: purchased DiscoveRx (KinomeScan)
Particulars: read-out: score (%).

The target in assay [30] is T30, KinomeScan kinase panel (Homo sapiens, UniProt P42336, Q546K).
T30 construct: purchased DiscoveRx (KinomeScan)
Particulars: PIK3CA(Q546K), 10 µM; read-out: score (%).

Assay [31] has as its target T31, KinomeScan kinase panel (Homo sapiens, UniProt Q9Y2K2).
T31 construct: purchased DiscoveRx (KinomeScan)
Particulars: 10 µM.

Assay [32] addresses T32, KinomeScan kinase panel (Homo sapiens, UniProt Q13233).
T32 construct: purchased DiscoveRx (KinomeScan)
Particulars: MAP3K1, 10 µM; read-out: score (%).

The target of assay [33] is T33, KinomeScan kinase panel (Homo sapiens, UniProt P53779).
T33 construct: purchased DiscoveRx (KinomeScan)
Particulars: JNK3, 10 µM.

Assay [34] concerns the target T34, KinomeScan kinase panel (Homo sapiens, UniProt Q9Y6M4).
T34 construct: purchased DiscoveRx (KinomeScan)
Particulars: CSNK1G3, 10 µM.

The structures appear in SMILES notation. Where two headings read alike, the source gives them in different places.

T11 sequence (Q92630 whole entry): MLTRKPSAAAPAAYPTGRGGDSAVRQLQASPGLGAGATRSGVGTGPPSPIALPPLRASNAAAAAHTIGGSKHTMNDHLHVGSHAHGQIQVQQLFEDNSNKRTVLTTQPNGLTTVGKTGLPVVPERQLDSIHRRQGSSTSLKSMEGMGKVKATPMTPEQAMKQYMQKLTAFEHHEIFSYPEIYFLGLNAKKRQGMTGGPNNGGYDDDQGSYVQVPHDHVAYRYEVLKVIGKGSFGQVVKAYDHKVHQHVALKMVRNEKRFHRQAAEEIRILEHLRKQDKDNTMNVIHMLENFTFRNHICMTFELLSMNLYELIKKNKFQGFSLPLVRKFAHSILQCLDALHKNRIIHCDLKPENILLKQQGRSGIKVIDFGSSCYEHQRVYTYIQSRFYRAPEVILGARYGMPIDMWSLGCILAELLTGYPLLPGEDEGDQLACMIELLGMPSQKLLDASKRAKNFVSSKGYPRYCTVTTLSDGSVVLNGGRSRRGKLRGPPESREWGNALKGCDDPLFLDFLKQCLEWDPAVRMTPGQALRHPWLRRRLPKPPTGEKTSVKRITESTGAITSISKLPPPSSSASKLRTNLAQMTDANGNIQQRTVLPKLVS
T18 sequence (Q9H422 whole entry): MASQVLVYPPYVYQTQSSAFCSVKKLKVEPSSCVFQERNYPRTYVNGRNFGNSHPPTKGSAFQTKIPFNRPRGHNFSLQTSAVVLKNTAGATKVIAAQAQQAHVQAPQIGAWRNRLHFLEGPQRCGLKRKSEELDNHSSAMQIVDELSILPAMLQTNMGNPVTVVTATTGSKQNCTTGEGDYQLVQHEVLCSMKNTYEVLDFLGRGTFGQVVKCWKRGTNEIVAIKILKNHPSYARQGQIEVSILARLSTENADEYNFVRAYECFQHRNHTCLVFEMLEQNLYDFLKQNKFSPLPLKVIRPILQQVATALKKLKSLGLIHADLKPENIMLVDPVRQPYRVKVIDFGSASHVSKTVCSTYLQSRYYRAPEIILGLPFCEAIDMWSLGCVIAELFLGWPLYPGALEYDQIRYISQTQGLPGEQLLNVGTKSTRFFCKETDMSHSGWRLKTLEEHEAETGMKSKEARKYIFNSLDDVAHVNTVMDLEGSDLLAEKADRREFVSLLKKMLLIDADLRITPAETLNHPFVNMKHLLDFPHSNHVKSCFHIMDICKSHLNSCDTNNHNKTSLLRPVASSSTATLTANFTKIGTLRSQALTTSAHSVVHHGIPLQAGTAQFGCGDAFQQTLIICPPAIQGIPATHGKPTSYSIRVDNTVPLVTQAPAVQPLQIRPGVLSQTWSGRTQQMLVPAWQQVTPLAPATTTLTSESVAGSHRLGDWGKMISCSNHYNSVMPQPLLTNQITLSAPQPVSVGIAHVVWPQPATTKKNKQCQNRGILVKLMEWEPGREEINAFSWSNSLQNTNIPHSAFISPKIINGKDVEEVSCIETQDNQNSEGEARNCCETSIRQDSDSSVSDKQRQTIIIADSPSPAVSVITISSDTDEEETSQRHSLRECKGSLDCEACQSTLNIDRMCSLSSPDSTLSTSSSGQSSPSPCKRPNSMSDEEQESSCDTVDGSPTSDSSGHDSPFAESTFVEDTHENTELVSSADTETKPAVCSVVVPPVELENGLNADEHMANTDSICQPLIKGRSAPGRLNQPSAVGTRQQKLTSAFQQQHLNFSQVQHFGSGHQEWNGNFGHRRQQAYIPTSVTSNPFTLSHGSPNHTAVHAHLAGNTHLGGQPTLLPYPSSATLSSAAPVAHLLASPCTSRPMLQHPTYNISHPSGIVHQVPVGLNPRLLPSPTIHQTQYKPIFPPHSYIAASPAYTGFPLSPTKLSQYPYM
T24 sequence (Q9UPZ9 whole entry): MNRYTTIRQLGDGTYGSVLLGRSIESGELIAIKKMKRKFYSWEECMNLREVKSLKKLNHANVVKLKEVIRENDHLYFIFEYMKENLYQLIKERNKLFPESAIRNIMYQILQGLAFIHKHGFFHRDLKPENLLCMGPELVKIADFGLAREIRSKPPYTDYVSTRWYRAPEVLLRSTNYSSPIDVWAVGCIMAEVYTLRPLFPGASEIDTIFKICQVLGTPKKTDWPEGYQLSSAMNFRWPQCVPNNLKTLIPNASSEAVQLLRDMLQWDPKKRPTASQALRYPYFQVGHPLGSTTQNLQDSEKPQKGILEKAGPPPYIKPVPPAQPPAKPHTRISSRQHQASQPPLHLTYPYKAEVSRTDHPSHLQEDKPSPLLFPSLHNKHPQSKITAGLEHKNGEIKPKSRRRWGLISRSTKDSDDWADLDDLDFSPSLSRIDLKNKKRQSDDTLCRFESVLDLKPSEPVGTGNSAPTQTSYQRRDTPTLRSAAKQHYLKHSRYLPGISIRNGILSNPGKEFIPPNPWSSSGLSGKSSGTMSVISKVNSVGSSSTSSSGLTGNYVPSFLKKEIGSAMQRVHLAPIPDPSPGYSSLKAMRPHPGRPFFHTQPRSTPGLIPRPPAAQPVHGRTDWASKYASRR
T27 sequence (Q8IVW4 whole entry): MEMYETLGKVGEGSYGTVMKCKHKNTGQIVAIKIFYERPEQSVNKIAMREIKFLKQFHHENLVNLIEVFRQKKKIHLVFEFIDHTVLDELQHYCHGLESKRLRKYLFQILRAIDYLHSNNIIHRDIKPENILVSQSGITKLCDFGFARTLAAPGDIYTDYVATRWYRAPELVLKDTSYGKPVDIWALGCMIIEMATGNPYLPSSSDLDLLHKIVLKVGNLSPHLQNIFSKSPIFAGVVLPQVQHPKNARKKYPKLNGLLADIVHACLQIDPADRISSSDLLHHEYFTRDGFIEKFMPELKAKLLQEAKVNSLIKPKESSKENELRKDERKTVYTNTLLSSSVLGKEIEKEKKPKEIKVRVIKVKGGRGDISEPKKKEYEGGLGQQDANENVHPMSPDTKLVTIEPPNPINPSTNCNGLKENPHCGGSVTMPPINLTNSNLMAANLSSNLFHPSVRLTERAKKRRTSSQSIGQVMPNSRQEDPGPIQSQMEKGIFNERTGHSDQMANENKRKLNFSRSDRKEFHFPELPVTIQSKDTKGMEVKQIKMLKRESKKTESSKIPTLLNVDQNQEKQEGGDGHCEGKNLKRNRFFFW
T3 sequence (Q15835 whole entry): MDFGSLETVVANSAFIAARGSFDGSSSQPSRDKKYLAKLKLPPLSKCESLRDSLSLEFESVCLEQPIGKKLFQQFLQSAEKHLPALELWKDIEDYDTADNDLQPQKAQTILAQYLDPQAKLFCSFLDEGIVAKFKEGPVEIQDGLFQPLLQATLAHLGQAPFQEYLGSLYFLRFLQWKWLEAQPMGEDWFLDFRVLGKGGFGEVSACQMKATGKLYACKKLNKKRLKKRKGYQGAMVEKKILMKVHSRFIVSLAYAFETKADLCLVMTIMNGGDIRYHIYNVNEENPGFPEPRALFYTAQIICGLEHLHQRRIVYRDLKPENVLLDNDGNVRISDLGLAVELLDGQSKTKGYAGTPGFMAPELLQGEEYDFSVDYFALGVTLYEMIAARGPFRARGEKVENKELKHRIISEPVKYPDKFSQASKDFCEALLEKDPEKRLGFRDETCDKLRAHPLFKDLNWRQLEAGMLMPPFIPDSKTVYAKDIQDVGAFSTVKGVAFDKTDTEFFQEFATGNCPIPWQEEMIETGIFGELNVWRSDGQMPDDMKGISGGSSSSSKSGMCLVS
T34 sequence (Q9Y6M4 whole entry): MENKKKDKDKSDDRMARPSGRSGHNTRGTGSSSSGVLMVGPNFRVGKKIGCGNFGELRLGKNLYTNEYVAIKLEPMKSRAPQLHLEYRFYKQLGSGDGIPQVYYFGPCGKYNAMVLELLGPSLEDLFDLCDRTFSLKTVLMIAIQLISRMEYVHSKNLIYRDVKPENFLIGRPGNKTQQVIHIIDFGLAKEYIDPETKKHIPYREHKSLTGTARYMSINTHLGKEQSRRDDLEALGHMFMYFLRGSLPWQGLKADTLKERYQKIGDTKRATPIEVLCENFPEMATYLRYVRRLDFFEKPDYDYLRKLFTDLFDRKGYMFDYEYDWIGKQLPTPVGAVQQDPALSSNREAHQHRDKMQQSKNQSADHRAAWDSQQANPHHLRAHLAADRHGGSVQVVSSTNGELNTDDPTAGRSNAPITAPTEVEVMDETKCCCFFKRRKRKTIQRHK

Turning to `CCN1CCN(Cc2ccc(NC(=O)c3ccc(C)c(NC(=O)c4cncc(-c5cccs5)c4)c3)cc2C(F)(F)F)CC1` [ALW-II-41-27], the remaining binding at 10 µM in [1] is > 30%; in assay [2] it was > 30%; in [3], > 30%; in assay [4], 21%; in [6], > 30%; in assay [7], 0%. The remaining binding at 10 µM is > 30% in assay [8]; 3.8% in [9]; > 30% in assay [10]; 18% in assay [11]; > 30% in assay [12]; > 30% in assay [13]. In addition, the remaining binding at 10 µM was > 30% in assay [14]; > 30% in assay [15]; > 30% in assay [16]; > 30% in [18]; 17% in assay [19]; > 30% in assay [20]. The remaining binding at 10 µM in assay [21] was 16%; in [22], > 30%; in assay [23], 0.15%; in assay [24], > 30%; in assay [25], 1.2%; in assay [26], > 30%. Besides, the remaining binding at 10 µM is 9.8% in [27]; 0% in assay [29] (ROCK1, 10 µM); > 30% in [30]; > 30% in [32]. The “score (%)” value was 15% in [5], “nb (Hits values higher than 30% were considered negative (no binding: nb))” in [17], “nb (Hits values higher than 30% were considered negative (no binding: nb))” in assay [28] and “nb (Hits values higher than 30% were considered negative (no binding: nb))” in assay [31] (QSK).

On to `CCN1CCN(Cc2ccc(NC(=O)c3ccc(C)c(/C=C/c4cnc5[nH]ccc5c4Cl)c3)cc2C(F)(F)F)CC1` [HG-6-63-01, (E)-3-(2-(4-chloro-1H-pyrrolo[2,3-b]pyridin-5-yl)vinyl)-N-(4-((4-ethylpiperazin-1-yl)methyl)-3-(trifluoromethyl)phenyl)-4-methylbenzamide], for which the “score (%)” value in [33] and in assay [34] was “nb (Hits values higher than 30% were considered negative (no binding: nb))” in each case.

Regarding `CCN1CCN(Cc2ccc(NC(=O)c3ccc(C)c(C#Cc4cccnc4)c3)cc2C(F)(F)F)CC1` [XMD15-44], the “score (%)” value is listed as 0.95% in [33]; 7.4% in assay [5]; “nb (Hits values higher than 30% were considered negative (no binding: nb))” in assay [17]; “nb (Hits values higher than 30% were considered negative (no binding: nb))” in assay [34]; “nb (Hits values higher than 30% were considered negative (no binding: nb))” in assay [28]; 70% in assay [31] (kinase QSK). Also, the remaining binding at 10 µM in assay [1] is 93%; in assay [2] it was 12%; in assay [3], > 30%; in [4], 0.1%; in [6], 48%; in assay [7], 0%. In addition, the remaining binding at 10 µM in [8] was > 30%; in [9], 0.15%; in assay [10], 100%; in assay [11], > 30%; in assay [12], > 30%; in assay [13] it was 100%. Moreover, the remaining binding at 10 µM in [14] was > 30%; in assay [15] it was > 30%; in assay [16], 97%; in [18], 18%; in [19], 1.2%; in [20] it was > 30%. For the same compound, the remaining binding at 10 µM in assay [21] was > 30%; in assay [22] it was 89%; in [23], > 30%; in assay [24] it was > 30%; in assay [25] it was 8.8%; in assay [26], 72%. Moreover, the remaining binding at 10 µM in [27] is 0.65%; in [29] (kinase ROCK1, 10 µM), 43%; in assay [30] it was 100%; in assay [32], > 30%.
